Two substances from US20150158914A1, “PEPTIDES, CONSTRUCTS AND USES THEREFOR” (priority 2010, published 2015) can be followed below.

Entries after “also recorded” stand apart in the source; their conditions may differ. Ends that are not written are not given here. * marks the point of attachment. FITC = O=C1OC2(c3ccc(O)cc3Oc3cc(O)ccc32)c2ccc(NC(=S)*)cc21

The test system of assay [1] is Rin-m5f pancreatic islet tumor cell line. As to the kind of experiment: Peptide uptake by other cell lines. Type of assay: cell-based, rat. The following applies: 3 h. How it is done:
(§1) The cells were then incubated overnight at 37° and 5% CO2, and then washed thrice with media without FCS. The X-protein peptide in 250 μl of appropriate media without FCS was added to the cells at a final concentration of 10 μM, and the slides incubated for 3 h at 37° C. and 5% CO2. The cells were washed with PBS, fixed with 4% formaldahyde in PBS for 30 min, and washed thrice with PBS. […] The slides were dried overnight in the dark, and examined by microscopy by using a Nikon E600 fluorescent microscope. Photos were taken using Nikon ACT-1 software. For further examination, slides were then examined by confocal microscopy using a Leica TCS-SP2 confocal microscope.
The X-protein cell-permeable peptide aa 16-22 was tested for its ability to be taken up by other mammalian cell lines including the human C32 melanoma, DU145 prostate carcinoma, TK1 T cell lymphoma, H441 lung carcinoma, Rin-m5f rat pancreatic islet tumor and Cos-1/7 green monkey kidney cell lines. TK1 cells are suspension cells whereas all other cell lines are adherent cells. Cells were incubated with the fluoresceinated X-protein cell-permeable peptide 16-22 for 3 h in medium appropriate for that cell line in the absence of FCS. The HepG2 cell line was used as a positive control. The X-protein peptide was able enter all adherent cell lines regardless of type or source of the cell (FIGS. 22 and 23).

Assay [2] has as its system HepG2 cells. As to the kind of experiment: Assay for cell permeability of X-protein peptides (fluorescence and confocal microscopy). Type of assay: cell-based, human. The settings on record: for uptake by HepG2 cells (cell permeability): FITC-labelled peptide 10 μM, 3 h, medium without FCS; for intracellular distribution (confocal slicing): FITC-labelled peptide, HepG2 cells. How it is done:
as §1

In assay [3] the test system is nonadherent erythrocytes and platelets. As to the kind of experiment: Peptide uptake in whole blood. The settings on record: whole blood in 10 mM citrate buffer, 3 h. It is filed as cell-based. As for the experimental part:
Whole blood was incubated with the fluoresceinated X-protein cell-permeable peptide aa 16-22 for 3 h to determine whether erythrocytes and platelets are able to take up the peptide. Blood was collected from a finger prick and suspended in 10 mM citrate buffer to prevent the blood clotting. After incubation with peptide the cells were washed in PBS and a blood smear prepared on a glass slide. The cells were stained with Diff-Quik.

In assay [4] the test system is HepG2 cells. As to the kind of experiment: Pathway of peptide entry: pretreatment with cytochalasin D or heparin. Type of assay: cell-based, human. The following applies: 30 min pretreatment, 10 μM peptide, 3 h; for effect of heparin pretreatment on peptide entry: 2 μg/ml heparin. How it is done:
Cells were plated overnight at 1×10^5 per well in eight chamber slides in complete MEM medium containing 10% FCS. The cells were washed thrice with MEM medium, and pretreated for 30 min with either 10 μm cytochalasin D or 2 μg/ml of heparin in MEM at 37° C. Peptide was then added at a concentration of 10 μM and cells were incubated for 3 h at 37° and 5% CO2. The cells were washed with PBS, fixed with 4% formaldehyde and PBS for 30 min, and a drop of Prolong Gold antifade reagent with DAPI (Invitrogen cat# P36931) was added to each well. The slides were dried overnight in the dark, and examined by microscopy by using a Nikon E600 fluorescent microscope. Photos were taken using Nikon ACT-1 software.
Exactly how cell-permeable peptides pass through the plasma membrane of cells is still not fully understood. […] Actin elongation on the cell surface leads to an extension of the plasma membrane into the extracellular environment. When the plasma membrane fuses back with itself it forms macropinosomes, and in doing so encapsulates and internalizes a large volume of extracellular fluid. Another mechanism is via the binding of peptides to cell surface heparan sulphate proteoglycans, which leads to internalization of the peptide through an endocytic process. HepG2 cells were pretreated with cytochalasin D and heparin, and then incubated with FITC-labelled cell permeable peptides aa 16-22, and aa 16-35 for 3 h to determine whether either of the above two mechanisms mediated cell uptake of the X-protein peptides. Control cells were treated with the X-protein peptides but were not treated with either chemical. Cytochalasin D is an F-actin elongation inhibitor, which inhibits macropinocytosis by inhibiting extension of the plasma membrane. Heparin would be expected to antagonize the binding of the peptides to cell surface heparan sulphate proteoglycans.

Assay [5] deals with T1, X-protein N-terminal peptide 1-50 (Hepatitis B virus genotype C subtype adr, UniProt Q81163, DEL44-44/P38S/S41A/S42F/V5L).
T1 construct: The parent peptide containing aa 1-50 conjugated N-terminally to a biotin tag; purchased; host or cells: chemical synthesis
Put plainly: Peptide binding assay: FITC-peptides on peptide 1-50-coated plates. The settings on record: FITC-peptide at 10, 20, 40 μg/ml, 30 min. How it is done:
Qligomerization peptides were received in powdered form, and were weighed and diluted in a sterile 10% DMSO solution to make a 10 mg/ml stock solution. The wells of a Reactibind neutravidin-coated 96 well plate (Thermoscientific cat #15507) were thrice washed with 200 μl of plate washing buffer. Peptide 1-50, which contains a biotin tag, was diluted to 10 μg/ml in wash buffer and 100 μl of the solution was placed into each well being used. The plate was incubated at room temperature for 2 h, and the wells washed thrice with 200 μl of wash buffer. Truncated fluorescent variants of peptide 1-50 at 40 μg/ml, 20 μg/ml, and 10 μg/ml were added to the wells in triplicate, and the plates incubated at room temperature for 30 min. The wells were then washed thrice with 200 μl of wash buffer under low light conditions, and the plate read on a Biotek fluorescent plate reader at an excitation wavelength of 490 nm and an emission wavelength of 520 nm.
A ligand-binding assay was performed using streptavidin-coated plates in order to define the minimum peptide motif needed for dimerization of the X-protein. In this scenario the X-protein monomer serves as its own ligand. […] A series of short peptides from the region encoding aa 1-50 were synthesized. The parent peptide containing aa 1-50 conjugated N-terminally to a biotin tag was added to the streptavidin coated plates. […] Non-biotinylated peptides encoding aa 1-20, 16-35, 21-40 and 34-53 were added at 10, 20, and 40 μg/ml to the wells coated with peptide aa 1-50. The smaller peptides were each conjugated to a FITC tag for detection using a fluorescent plate reader. […] Binding performed with lesser concentrations of the peptides was not significant. Even smaller peptides encompassing that region 16-35 were made to determine whether the aa 16-35 was the minimum peptide motif needed for X-protein dimerization. These peptides synthesized, namely aa 16-26, 16-24, and 16-22 were analyzed using the same peptide binding assay. […] Thus of the peptides examined, the minimal peptide motif needed for dimerization of the X-protein is the […] peptide 16-35.

Where [6] appears, read: listed as X-protein cell-permeable peptide 16-22.

Take “FITC-LCLRPVG ({FITC}-LCLRPVG) [Peptide 16-22]”: the “uptake of the peptide, cells positive” value is listed as 60 to 70 % cells positive in assay [1] (Rin-m5f, no FCS) and greater than 90 % cells positive with HepG2 cells [2] (HepG2, 3 h, no FCS). Besides, in assay [1] (Rinm5f), the entry into cells entry was “taken up less efficiently”. The “uptake by HepG2 cells (cell permeability)” value with HepG2 cells [2] (setting [6]) is “able to enter”; in the assay on HepG2 cells [2] (listed as aa 16-22) it was “cell-permeable, being taken up by cells at a level equivalent to that of the parental peptide aa 16-35; also recorded: taken up into the cells”. Besides, the “intracellular distribution (confocal slicing)” value in the assay on HepG2 cells [2] (listed as aa 16-22) was “taken up into both the cytoplasm and nucleus of cells”. Further, the “uptake by erythrocytes and platelets” value is “does not enter” in assay [3] (setting [6]) and “None of the cell types present” in assay [3] (listed as X-protein cell-permeable peptide aa 16-22). Also, the “effect of heparin pretreatment on peptide entry” value in the assay with HepG2 cells [4] (listed as aa 16-22) is on record as “dependent on heparin binding; also recorded: effectively blocked peptide entry into the cells”. Besides, the “effect of cytochalasin D pretreatment on peptide entry” value with HepG2 cells [4] is recorded as “no effect on the entry of the peptides into the cell”. For the same substance, in assay [5], the “binding to peptide 1-50 (fluorescence)” value is given as “could not match the strong binding shown by the parental peptide 16-35”.
Consider “FITC-Acp-LCLRPVGAESRGRPVSGPFG [Peptide 16-35]”, for which, in the assay with HepG2 cells [2] (listed as aa 16-35), the “uptake by HepG2 cells (cell permeability)” value is “cell-permeable; also recorded: readily taken up by the cells”; the “intracellular distribution (confocal slicing)” value was “taken up into the cytoplasm and nucleus; also recorded: taken up into the cell cytoplasm, as well as into the nucleus”. Also, the “effect of heparin pretreatment on peptide entry” value in the assay on HepG2 cells [4] (listed as aa 16-35) is “dependent on heparin binding; also recorded: effectively blocked peptide entry into the cells”. The “effect of cytochalasin D pretreatment on peptide entry” value with HepG2 cells [4] is recorded as “no effect on the entry of the peptides into the cell”. Moreover, in assay [5], the “binding to peptide 1-50 (fluorescence)” value is recorded as “bound significantly more strongly to peptide 1-50; also recorded: binds to the X-protein N-terminal peptide 1-50”.
